{"source": "patent US20230172873A1", "about": "“Uses and Formulations of Cannabinoids” (priority 2020, published 2023)", "key": {"IL-6 receptor": {"biological_target": "T1, IL-6 receptor (Homo sapiens, UniProt P08887)", "T1 sequence (P08887 20-468)": "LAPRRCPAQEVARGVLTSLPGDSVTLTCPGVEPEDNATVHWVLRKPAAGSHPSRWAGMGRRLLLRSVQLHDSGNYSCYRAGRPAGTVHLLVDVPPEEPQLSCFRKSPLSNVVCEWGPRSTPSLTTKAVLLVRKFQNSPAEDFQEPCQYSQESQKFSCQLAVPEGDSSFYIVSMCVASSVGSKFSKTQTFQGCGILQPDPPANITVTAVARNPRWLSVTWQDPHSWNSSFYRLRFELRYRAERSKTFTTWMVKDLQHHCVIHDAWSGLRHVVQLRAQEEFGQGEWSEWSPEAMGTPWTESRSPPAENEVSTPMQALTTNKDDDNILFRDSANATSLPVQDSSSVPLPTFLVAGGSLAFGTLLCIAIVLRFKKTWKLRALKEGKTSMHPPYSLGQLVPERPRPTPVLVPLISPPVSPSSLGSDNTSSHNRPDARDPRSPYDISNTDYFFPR", "details": "patients with rheumatoid arthritis and systemic juvenile idiopathic arthritis; cited from earlier work"}, "[1]": {"assay": "log P (n-octanol/water partition coefficient)", "format": "physicochemical", "details": "active ingredient of Example 9", "experimental": "In fact, cannabinoids are highly lipophilic molecules (log P 6-7) with very low water solubility (2-10 µg / ml). The log P is the decimal logarithm of the n-octanol/water partition coefficient. The partition coefficient can be determined experimentally. Values typically refer to room temperature (25° C.). The partition coefficient can also be roughly calculated from the molecular structure."}, "[2]": {"assay": "Systemic exposure after i.p. and oral application of CBD in mice", "format": "in vivo", "details": "20 mg/kg; assuming dose-proportional plasma concentrations", "experimental": "A comparative investigation for systemic exposure after i.p. and oral application of CBD in mice and rats has shown that 120 mg/kg as a single dose leads to a maximum plasma concentration of 14,000 ng/ml in mice (S. Deiana et al. (2012). Plasma and brain pharmacokinetic profile of cannabidiol (CBD), cannabidivarine (CBDV), Delta(9)-tetrahydrocannabivarin (THCV) and cannabigerol (CBG) in rats and mice following oral and intraperitoneal administration and CBD action on obsessive-compulsive behaviour. Psychopharmacology (Berl) 219(3): 859-73)."}, "IL-6 secretion [3]": {"test_system": "IL-6 secretion", "details": "conversion of the effective concentration"}, "[4]": {"details": "mice; 120 mg/kg single dose (Deiana et al. 2012); cited from earlier work"}, "IL-6 secretion [5]": {"test_system": "IL-6 secretion", "details": "cellular models, majority of cases (Chen et al. 2016); cited from earlier work"}, "[6]": {"test_system": "LPS-induced acute lung injury", "details": "cited from earlier work"}, "[7]": {"test_system": "LPS-induced acute lung injury", "details": "mice, 20 mg/kg, cited from earlier work"}, "human mononuclear cells": {"test_system": "human mononuclear cells", "details": "nanomolar or micromolar concentrations; cited from earlier work"}, "human neutrophils": {"test_system": "human neutrophils", "details": "McHugh et al. 2008; cited from earlier work"}, "CD83": {"test_system": "CD83", "details": "dendritic cells derived from individuals with HIV infection; cited from earlier work"}, "microglial cells": {"test_system": "microglial cells", "details": "1-16 µmol/l (Wu et al. 2012); cited from earlier work"}, "[8]": {"test_system": "chemically induced acute hepatitis", "details": "mice, cited from earlier work"}, "[9]": {"test_system": "activated memory T cell line", "details": "1-5 µmol/l (Kozela et al. 2013), cited from earlier work"}, "[10]": {"test_system": "ischemia-reperfusion-induced kidney injury", "details": "mice, cited from earlier work"}, "inflammatory processes": {"test_system": "inflammatory processes", "details": "cited from earlier work"}, "NK, NKT, T and B cells": {"test_system": "NK, NKT, T and B cells", "details": "healthy rats, cited from earlier work"}, "[11]": {"details": "mice, 0.3-80 mg/kg i.p. 60 minutes before LPS (Ribeiro et al. 2012)"}}, "note": "Where two headings read alike, the source gives them in different places.", "data": [{"compound": "tocilizumab: a humanized anti-IL-6 receptor antibody", "values": [{"measurement": "efficacy", "setting": "IL-6 receptor", "result": "verified its efficacy"}, {"measurement": "safety", "setting": "IL-6 receptor", "result": "tolerable safety"}]}, {"compound": "C=C(C)[C@@H]1CCC(C)=C[C@H]1c1c(O)cc(CCCCC)cc1O", "note": "[CBD, 2-[(1R,6R)-3-methyl-6-(1-methylethenyl)-2-cyclohexen-1-yl]-5-pentyl-1,3-benzenediol]", "values": [{"measurement": "logP", "setting": "[1]", "result": "~6.1"}, {"measurement": "target peak exposure", "setting": "[2]", "result": "2,300 ng/ml"}, {"measurement": "resulting concentration (5 µM converted with molecular weight 314.5 g/mol)", "setting": "IL-6 secretion [3]", "result": "1,570 ng/ml"}, {"measurement": "maximum plasma concentration", "setting": "[4]", "result": "14,000 ng/ml"}, {"measurement": "effective concentration for suppressive effect on IL-6 secretion", "setting": "IL-6 secretion [5]", "result": "~5", "unit": "µM"}, {"measurement": "number of leukocytes including macrophages and neutrophils in the bronchoalveolar lavage fluid", "setting": "[6]; mice, 20 mg/kg, after LPS-induced lung inflammation", "result": "decreases"}, {"measurement": "Total leukocytes migration", "setting": "[6]; [11]", "result": "significantly decreased"}, {"measurement": "myeloperoxidase activity", "setting": "[6]; [11]", "result": "significantly decreased"}, {"measurement": "pro-inflammatory cytokine production including TNF-a and IL-6", "setting": "[6]; [11]", "result": "significantly decreased"}, {"measurement": "vascular permeability", "setting": "[6]; [11]", "result": "significantly decreased"}, {"measurement": "dose at which effects reached a nearly maximum extent", "setting": "[6]; prophylactic application, i.p.", "result": 20, "unit": "mg/kg"}, {"measurement": "mechanical lung function", "setting": "[7]; 6 h after LPS (Ribeiro et al. 2014)", "result": "improved"}, {"measurement": "leukocyte migration (neutrophil, macrophages and lymphocytes) into the lungs", "setting": "[7]; 6 h after LPS", "result": "decreased"}, {"measurement": "myeloperoxidase activity in the lung tissue", "setting": "[7]; 6 h after LPS", "result": "decreased"}, {"measurement": "production of proinflammatory cytokines/chemokines", "setting": "[7]; 6 h after LPS", "result": "reduced"}, {"measurement": "vascular permeability", "setting": "[7]; 6 h after LPS", "result": "reduced"}, {"measurement": "release of pro-inflammatory cytokines", "setting": "human mononuclear cells", "result": "suppressed"}, {"measurement": "migration of human neutrophils", "setting": "human neutrophils", "result": "inhibits"}, {"measurement": "CD83 dendritic cell activation marker", "setting": "CD83", "result": "suppresses"}, {"measurement": "apoptosis in microglial cells", "setting": "microglial cells", "result": "induces apoptosis"}, {"measurement": "expression of MDSCs", "setting": "[8]; 25 mg/kg (Hegde et al. 2011)", "result": "induces the expression of MDSCs"}, {"measurement": "pro-inflammatory cytokines such as IL-2, TNF-α and IL-6", "setting": "[8]; 25 mg/kg", "result": "reduction"}, {"measurement": "IL-6 production and secretion", "setting": "[9]", "result": "decreased"}, {"measurement": "production of IL-10", "setting": "[9]", "result": "increased"}, {"measurement": "autoantigen-specific Th17 cell phenotype (Th17 signature cytokine IL-17)", "setting": "[9]; dose-dependently", "result": "reduces"}, {"measurement": "kidney protection", "setting": "[10]; 10 mg/kg after induced kidney injury (Baban et al. 2018)", "result": "renoprotective"}, {"measurement": "decreased Treg17 and increased Th17 levels", "setting": "[10]; 10 mg/kg after induced kidney injury", "result": "reversed these effects"}, {"measurement": "circulating IL-6", "setting": "inflammatory processes; animal models including diabetes, asthma, pancreatitis and hepatitis (Nichols and Kaplan 2020)", "result": "suppress"}, {"measurement": "regulatory T cells (Tregs)", "setting": "inflammatory processes; several disease models (Nichols and Kaplan 2020)", "result": "induce regulatory T cells (Tregs)"}, {"measurement": "numbers of natural killer (NK) cells and natural killer T (NKT) cells", "setting": "NK, NKT, T and B cells; 2.5 mg/kg per day", "result": "increased"}, {"measurement": "numbers of natural killer (NK) cells and natural killer T (NKT) cells", "setting": "NK, NKT, T and B cells; 5 mg/kg per day", "result": "not affected"}, {"measurement": "number of B cells", "setting": "NK, NKT, T and B cells; daily 5 mg/kg", "result": "significantly reduced"}, {"measurement": "number of T cells including T helper cells and cytotoxic T cells", "setting": "NK, NKT, T and B cells; daily 5 mg/kg", "result": "significantly reduced"}]}]}
